Tested on: eIF2-GTP-Met-tRNAi ternary complex
Experiment: Ternary complex assay (dual luciferase, firefly/renilla ratio) in stable KLN-tTA/pBISA-DL(ATF-4) cells; HTS and hit confirmation
Format: cell-based, mouse
Parameters: Activity 10 uM / Activity 2.5 uM / Activity 5 uM: unit not given here
Conditions: confirmed hits of the screen (Table 5); for Activity 2.5 uM: compound at 2.5 uM; for Activity 10 uM: compound at 10 uM; for Activity 5 uM: compound at 5 uM

Row | Compound | Activity 2.5 uM | Activity 10 uM | Activity 5 uM
1 | COc1cc2c(cc1O)C(=O)c1[nH]c3ccccc3c1CC2 [Compound 271272] | 2.76 | 4.93 | 
2 | O=C(OCC1OC(n2cc[n+]([O-])nc2=O)C(OC(=O)c2ccccc2)C1OC(=O)c1ccccc1)c1ccccc1 (centres unmarked) [Compound 276293] | 20.35 |  | 
3 | O=C(Nc1ncc([N+](=O)[O-])s1)c1cccnc1 [Compound 276393] |  | 8.706 | 6.644
4 | CCOC(=O)[C]1([Hg][CH3])N=NC(C(=O)OC)=C1C(=O)OC (centres unmarked) [Compound 278352] | 3.81 |  | 
5 | Cc1ccc(S(=O)(=O)C(c2ccccc2)C(Br)C(=O)c2ccccc2)cc1 (centres unmarked) [Compound 280894] | 2.06 |  | 
6 | O=C1c2ccccc2C(=O)c2c1oc1c2ccc2ccccc21 [Compound 281986] | 3.11 | 3.37 | 
7 | Br[CH](Br)[Hg][c]1ccccc1 [Compound 286678] | 1.72 |  | 
8 | CCCCC(OC(=O)c1ccccc1)c1cc(OC(=O)c2ccccc2)c2c(c1OC(=O)c1ccccc1)CC(C)=C(C)C2 (centres unmarked) [Compound 287407] | 3.93 | 36.2 | 
9 | CC1=C(C)CC2C(=O)C(C(O)CC(C)C)=CC(=O)C2C1 (centres unmarked) [Compound 287413] | 0.68 | 17.06 | 
10 | CCN1/C(=C/C=C2\CCC(/C=C/c3sc4ccc(Cl)cc4[n+]3CC)=C2N(c2ccccc2)c2ccccc2)Sc2ccc(Cl)cc21.[O-][Cl+3]([O-])([O-])[O-] [Compound 290436] |  | 20.4 | 3.8
11 | CCC[CH2][Sn]1([CH2]CCC)[O]C2C(CO)OC(n3c(Br)c(C#N)c4c(N)ncnc43)C2[O]1 (centres unmarked) [Compound 291104] | 1.4 | 3.83 | 
12 | c1ccc2c(c1)cnc1c3ccccc3nn21 [Compound 292587] |  | 3.294 | 2.577
13 | CN(C)c1cc(=O)c2c(ccc3ccccc32)o1 [Compound 292795] |  | 4.66 | 3.69
14 | CCN(C)c1cc(=O)c2c(ccc3ccccc32)o1 [Compound 292796] |  | 5.6 | 4.759
15 | S=C(N=Nc1ccccc1)N[N-]c1ccccc1.S=C(N=Nc1ccccc1)N[N-]c1ccccc1.[Zn+2] [Compound 293939] | 1.54 | 7.78 | 
16 | CCOC(=C\C=C\C1=[N+](C)c2ccccc2C1(C)C)/C=C/C=C1/N(C)c2ccccc2C1(C)C.F[B-](F)(F)F [Compound 295477] | 6.24 | 9.07 | 

Row | Compound | Activity 2.5 uM | Activity 10 uM | Activity 5 uM
17 | CCCCCCCCCCCCCCCC[N+](C)(C)CCOC(C)=O.O=S(=O)([O-])C(F)(F)F [Compound 297153] | 0.95 | 4.39 | 
18 | CCCCCCCCCCCCCCCC[N+](C)(C)CCN=[N+]=[N-].O=S(=O)([O-])C(F)(F)F [Compound 297154] | 1.24 | 5.62 | 
19 | Br.CCCCCCCCCCCCCCCC[N+](C)(C)CCN.[Br-] [Compound 297156] | 1.08 | 5.15 | 
20 | CCCCC(Oc1cc(C(C)(C)C)c(O)c(C(C)(C)C)c1)C(=O)O (centres unmarked) [Compound 297621] | 18.95 |  | 
21 | O=C(NC(=O)c1c(F)cccc1F)Nc1nc2ccccc2s1 [Compound 298153] | 3.67 | 3.43 | 
22 | c1ccc(-c2ccc(-c3csnn3)cc2)cc1 [Compound 298243] |  | 3.327 | 2.747
23 | CN(C)c1ccc(N=Nc2ccc3c4c(cccc24)-c2ccccc2-3)cc1 [Compound 299107] | 8.13 | 279.99 | 
24 | [Pd].[Pd].[S-]CC[S-].[S-]CC[S-].c1ccc([PH+](c2ccccc2)c2ccccc2)cc1.c1ccc([PH+](c2ccccc2)c2ccccc2)cc1 [Compound 300554] | 0.48 | 8.96 | 
25 | CC(C)[S-].CC(C)[S-].[Pt+2].c1ccc([PH+](c2ccccc2)c2ccccc2)cc1.c1ccc([PH+](c2ccccc2)c2ccccc2)cc1 [Compound 300559] | 0.71 | 4.71 | 
26 | Cc1ccc(NC(=O)c2cc3ccccc3cc2O)c(C)c1.Cc1ccc(NC(=O)c2cc3ccccc3cc2O)c(C)c1.[Mn+2] [Compound 306697] | 1.77 | 19.5 | 
27 | FC(F)(F)c1cc(NC2=NCCN=C(Nc3cc(C(F)(F)F)cc(C(F)(F)F)c3)SS2)cc(C(F)(F)F)c1 [Compound 309898] | 1.07 | 13.68 | 
28 | C[N+]1=C(/C=C/Nc2cc3c4ccccc4ccc3c3ccccc23)C(C)(C)c2ccccc21.[Cl-] [Compound 313162] | 1.07 | 4.03 | 
29 | CN(C)Cc1[c-]c(CN(C)C)ccc1.[Br][Pt] [Compound 315819] | 2.12 | 13.17 | 
30 | Clc1cc[c]([Sb]2([c]3ccc(Cl)cc3)([c]3ccc(Cl)cc3)[O]C(C(Cl)(Cl)Cl)[O]2)cc1 (centres unmarked) [Compound 316746] | 0.88 | 6.11 | 
31 | [C-]#[O+].[C-]#[O+].[C-]#[O+].[CH3][Sn]([c]1ccccc1)[c]1ccccc1.[Co].c1ccc([PH+](c2ccccc2)c2ccccc2)cc1 [Compound 319697] | 3.1 |  | 

— patent US9932300B2, “N,N′-diarylurea compounds and N,N′-diarylthiourea compounds as inhibitors of translation initiation” (President and Fellows of Harvard College, priority 2009, dated 2018)
